# US9586951B2 (FUJIFILM Corporation, priority 2013, dated 2017)
# pIC50: −log10 of the molar value.
# Target: T1, ATM (Homo sapiens, UniProt Q13315)
# T1 construct: detecting phosphorylation of Chk2 in a human non-small cell lung cancer cell line NCI-H460 (ATCC company); host or cells: NCI-H460 human non-small cell lung cancer cells
# Assay: ATM inhibition test (phosphorylation of Chk2 generated by ionizing radiation, AlphaScreen SureFire)
# Type: cell-based
# Conditions: phosphorylated Chk2 in NCI-H460 cells, ionizing radiation 8Gy, 1 hour after test compound treatment; read-out: ATM inhibitory activity
# Outline: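 In NCI-H460 cells, radiation-triggered Chk2 phosphorylation (8Gy, 1 h) is detected by AlphaScreen SureFire following 1 h compound exposure.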
# T1 sequence (Q13315 whole entry): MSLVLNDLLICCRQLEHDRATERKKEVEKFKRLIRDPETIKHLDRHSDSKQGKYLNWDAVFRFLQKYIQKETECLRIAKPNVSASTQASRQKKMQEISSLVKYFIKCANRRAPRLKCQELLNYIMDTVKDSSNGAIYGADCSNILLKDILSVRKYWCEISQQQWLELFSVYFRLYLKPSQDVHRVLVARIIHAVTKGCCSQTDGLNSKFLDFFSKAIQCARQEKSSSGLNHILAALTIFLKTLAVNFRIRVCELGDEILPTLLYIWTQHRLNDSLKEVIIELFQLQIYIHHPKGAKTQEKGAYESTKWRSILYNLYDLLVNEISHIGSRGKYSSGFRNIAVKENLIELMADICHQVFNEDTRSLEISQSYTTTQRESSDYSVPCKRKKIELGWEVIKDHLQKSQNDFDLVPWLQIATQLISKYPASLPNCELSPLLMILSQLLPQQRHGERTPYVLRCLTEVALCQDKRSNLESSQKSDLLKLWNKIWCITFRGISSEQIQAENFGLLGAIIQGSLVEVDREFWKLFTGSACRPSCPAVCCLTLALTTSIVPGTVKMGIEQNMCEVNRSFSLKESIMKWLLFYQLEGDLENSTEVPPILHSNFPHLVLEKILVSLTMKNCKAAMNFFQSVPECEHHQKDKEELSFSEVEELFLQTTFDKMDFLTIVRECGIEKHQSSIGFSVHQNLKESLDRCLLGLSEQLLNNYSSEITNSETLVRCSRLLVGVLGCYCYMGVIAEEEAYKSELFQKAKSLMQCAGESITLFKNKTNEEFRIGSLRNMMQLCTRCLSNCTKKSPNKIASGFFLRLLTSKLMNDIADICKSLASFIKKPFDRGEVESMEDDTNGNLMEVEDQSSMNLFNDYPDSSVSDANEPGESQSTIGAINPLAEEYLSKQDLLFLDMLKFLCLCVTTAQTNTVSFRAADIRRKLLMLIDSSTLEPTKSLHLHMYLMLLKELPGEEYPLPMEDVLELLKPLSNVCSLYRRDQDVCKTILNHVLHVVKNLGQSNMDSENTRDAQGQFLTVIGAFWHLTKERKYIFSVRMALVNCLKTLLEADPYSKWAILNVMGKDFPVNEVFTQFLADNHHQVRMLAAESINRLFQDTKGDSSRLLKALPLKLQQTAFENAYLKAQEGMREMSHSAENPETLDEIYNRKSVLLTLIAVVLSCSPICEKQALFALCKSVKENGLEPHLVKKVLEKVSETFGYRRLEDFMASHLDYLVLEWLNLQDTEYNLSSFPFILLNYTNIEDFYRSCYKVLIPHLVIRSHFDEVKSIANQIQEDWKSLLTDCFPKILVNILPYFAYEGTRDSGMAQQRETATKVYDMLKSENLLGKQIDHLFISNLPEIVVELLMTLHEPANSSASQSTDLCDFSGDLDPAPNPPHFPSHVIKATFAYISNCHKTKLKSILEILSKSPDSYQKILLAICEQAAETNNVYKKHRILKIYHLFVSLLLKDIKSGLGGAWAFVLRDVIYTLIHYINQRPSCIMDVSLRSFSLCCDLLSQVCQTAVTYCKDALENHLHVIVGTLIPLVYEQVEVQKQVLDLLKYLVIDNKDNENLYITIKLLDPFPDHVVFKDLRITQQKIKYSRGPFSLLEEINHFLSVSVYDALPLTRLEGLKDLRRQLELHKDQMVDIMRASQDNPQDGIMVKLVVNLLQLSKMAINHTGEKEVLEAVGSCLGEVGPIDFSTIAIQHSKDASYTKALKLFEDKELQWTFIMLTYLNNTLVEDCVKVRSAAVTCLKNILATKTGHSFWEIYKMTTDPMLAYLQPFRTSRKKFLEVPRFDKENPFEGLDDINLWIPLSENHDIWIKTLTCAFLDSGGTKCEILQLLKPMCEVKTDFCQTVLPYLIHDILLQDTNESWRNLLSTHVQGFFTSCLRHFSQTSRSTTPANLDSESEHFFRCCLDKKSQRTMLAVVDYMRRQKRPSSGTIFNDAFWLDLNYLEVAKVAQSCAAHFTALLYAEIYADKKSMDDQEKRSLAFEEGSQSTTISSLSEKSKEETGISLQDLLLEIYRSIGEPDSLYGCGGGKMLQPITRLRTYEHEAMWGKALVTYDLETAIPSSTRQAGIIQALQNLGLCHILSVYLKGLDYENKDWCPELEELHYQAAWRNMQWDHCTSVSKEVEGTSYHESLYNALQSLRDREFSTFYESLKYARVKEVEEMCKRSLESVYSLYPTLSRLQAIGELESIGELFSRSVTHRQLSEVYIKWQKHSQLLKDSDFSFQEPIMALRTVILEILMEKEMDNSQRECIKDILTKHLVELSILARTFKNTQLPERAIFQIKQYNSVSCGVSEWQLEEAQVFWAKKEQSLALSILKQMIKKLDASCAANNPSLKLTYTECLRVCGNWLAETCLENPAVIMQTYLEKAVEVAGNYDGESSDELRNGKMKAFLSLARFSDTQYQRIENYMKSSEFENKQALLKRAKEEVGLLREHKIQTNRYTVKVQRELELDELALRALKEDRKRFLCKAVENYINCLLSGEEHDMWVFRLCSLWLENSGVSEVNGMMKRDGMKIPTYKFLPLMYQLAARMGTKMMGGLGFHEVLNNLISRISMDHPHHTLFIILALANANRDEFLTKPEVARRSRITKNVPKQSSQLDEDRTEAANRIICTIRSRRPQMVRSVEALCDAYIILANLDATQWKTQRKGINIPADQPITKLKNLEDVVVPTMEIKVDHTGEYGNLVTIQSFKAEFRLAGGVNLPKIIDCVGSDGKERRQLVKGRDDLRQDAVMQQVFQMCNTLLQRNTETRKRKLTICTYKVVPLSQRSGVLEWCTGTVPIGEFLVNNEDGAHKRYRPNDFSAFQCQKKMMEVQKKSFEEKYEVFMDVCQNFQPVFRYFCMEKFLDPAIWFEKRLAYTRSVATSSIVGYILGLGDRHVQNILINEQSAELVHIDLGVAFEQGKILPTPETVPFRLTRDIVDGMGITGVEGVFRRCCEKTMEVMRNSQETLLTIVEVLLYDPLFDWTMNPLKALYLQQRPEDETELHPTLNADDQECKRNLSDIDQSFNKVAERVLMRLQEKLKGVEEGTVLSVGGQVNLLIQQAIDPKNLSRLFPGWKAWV
row,pIC50,Structure (SMILES)
1,> 7.00,"Cc1ccc(C(Nc2ccc3c(c2)Sc2cccc(-c4cc(N5CCOCC5)cc(=O)[nH]4)c2S3)C2CN(CCO)CCO2)nc1 (racemic) [Example 1-57-1, 6-(7-(((4-(2-hydroxyethyl)morpholin-2-yl)(5-methylpyridin-2-yl)methyl)amino)thianthren-1-yl)-4-morpholinopyridin-2(1H)-one]"
2,6.30 to 7.00,"O=c1cc(N2CCOCC2)cc(-c2cccc3c2Oc2ccc(NCc4cncc(-n5ccnc5)c4)cc2C3)[nH]1 [Example 2-2-56, 6-(7-(((5-(1H-Imidazol-1-yl)pyridin-3-yl)methyl)amino)-9H-xanthen-4-yl)-4-morpholino pyridin-2 (1H)-one]"
3,> 7.00,"O=c1cc(N2CCOCC2)cc(-c2cccc3c2Sc2ccc(NCc4ccc(Cl)nc4)cc2S3)[nH]1 [Example 1-44-2, 6-(7-(((6-Chloropyridin-3-yl)methyl)amino)thianthren-1-yl)-4-morpholino pyridin-2(1H)-one]"
4,6.30 to 7.00,"Nc1ccc2c(c1)Cc1ccc(F)c(-c3cc(N4CCOCC4)cc(=O)[nH]3)c1O2 [Example 2-45, 6-(7-Amino-3-fluoro-9H-xanthen-4-yl)-4-morpholinopyridin-2(1H)-one]"
5,6.30 to 7.00,"CC(CNc1ccc2c(c1)Sc1cccc(-c3cc(N4CCOCC4)cc(=O)[nH]3)c1S2)CN1CCOCC1 (centres unmarked) [Example 8-4, 6-(7-((2-Methyl-3-morpholinopropyl)amino)thianthren-1-yl)-4-morpholinopyridin-2(1H)-one]"
6,6.30 to 7.00,CC(C)Nc1cncc(CNc2ccc3c(c2)Sc2cccc(-c4cc(N5CCOCC5)cc(=O)[nH]4)c2O3)c1 [Example 4-8-26]
7,6.30 to 7.00,"CN1CCC[C@H]1CNc1ccc2c(c1)Sc1cccc(-c3cc(N4CCOCC4)cc(=O)[nH]3)c1S2 [Example 1-3, (S)-6-(7-(((1-methylpyrrolidin-2-yl)methyl)amino)thianthren-1-yl)-4-morpholinopyridin-2(1H)-one]"
8,6.30 to 7.00,"O=c1cc(N2CCOCC2)cc(-c2cccc3c2Oc2ccc(NCc4cncc(F)c4)cc2C3)[nH]1 [Example 2-2-10, 6-(7-(((5-Fluoropyridin-3-yl)methyl)amino)-9H-xanthen-4-yl)-4-morpholino pyridin-2 (1H)-one]"
9,6.30 to 7.00,"CCC(C(=O)Nc1ccc2c(c1)Sc1cccc(-c3cc(N4CCOCC4)cc(=O)[nH]3)c1S2)N1CCCC1 (centres unmarked) [Example 1-6-1, N-(6-(4-morpholino-6-oxo-1,6-dihydropyridin-2-yl)thianthren-2-yl)-2-(pyrrolidin-1-yl)butanamide]"
10,5.70 to 6.30,"O=c1cc(N2CCOCC2)cc(-c2cccc3c2Sc2ccc(NCc4ccncc4)cc2C3)[nH]1 [Example 3-8-2, 4-Morpholino-6-(7-((pyridin-4-ylmethyl)amino)-9H-thioxanthen-4-yl)pyridin-2(1H)-one]"
11,5.70 to 6.30,O=c1cc(N2CCOCC2)cc(-c2cccc3c2Oc2ccc(NCC4CCN(c5ccncc5)CC4)cc2C3)[nH]1 [Example 2-21-5]
12,> 7.00,"CCOC(=O)CNc1ccc2c(c1)Sc1cccc(-c3cc(N4CCOCC4)cc(=O)[nH]3)c1S2 [Example 1-12-49, Ethyl 2-((6-(4-morpholino-6-oxo-1,6-dihydropyridin-2-yl)thianthren-2-yl)amino) acetate]"
13,6.30 to 7.00,"Nc1ncccc1CNc1ccc2c(c1)Cc1cccc(-c3cc(N4CCOCC4)cc(=O)[nH]3)c1O2 [Example 2-2-21, 6-(7-(((2-Aminopyridin-3-yl)methyl)amino)-9H-xanthen-4-yl)-4-morpholino pyridin-2(1H)-one]"
14,6.30 to 7.00,"CN1CCC(Nc2ccc3c(c2)Sc2cccc(-c4cc(N5CCOCC5)cc(=O)[nH]4)c2O3)CC1 [Example 4-8-2, 6-(8-((1-Methylpiperidin-4-yl)amino)phenoxathiin-4-yl)-4-morpholino pyridin-2(1H)-one]"
15,6.30 to 7.00,"Cc1ccnc(C(CO)Nc2ccc3c(c2)Sc2cccc(-c4cc(N5CCOCC5)cc(=O)[nH]4)c2S3)c1 (single isomer, unassigned) [Example 1-12-138-1, 6-(7-((2-hydroxy-1-(4-methylpyridin-2-yl)ethyl)amino)thianthren-1-yl)-4-morpholinopyridin-2(1H)-one]"
16,6.30 to 7.00,"COCc1cncc(CNc2ccc3c(c2)Cc2cccc(-c4cc(N5CCOCC5)cc(=O)[nH]4)c2O3)c1 [Example 2-2-33, 6-(7-(((5-(Methoxymethyl)pyridin-3-yl)methyl)amino)-9H-xanthen-4-yl)-4-morpholino pyridin-2(1H)-one]"
17,6.30 to 7.00,"Cn1cc(-c2cncc(CNc3ccc4c(c3)Sc3cccc(-c5cc(N6CCOCC6)cc(=O)[nH]5)c3O4)c2)cn1 [Example 4-4-11, 6-(8-(((5-(1-Methyl-1H-pyrazol-4-yl)pyridin-3-yl)methyl)amino)phenoxathiin-4-yl)-4-morpholino pyridin-2 (1H)-one]"
18,5.70 to 6.30,"Nc1ccc2c(c1)Cc1cccc(-c3cc(N4CCOCC4)cc(=O)[nH]3)c1S2 [Example 3-1, 6-(7-amino-9H-thioxanthen-4-yl)-4-morpholinopyridin-2(1H)-one]"

row,pIC50,Structure (SMILES)
1,6.30 to 7.00,"O=c1cc(N2CCOCC2)cc(-c2ccc(F)c3c2Oc2ccc(NCc4cncc(Cl)c4)cc2C3)[nH]1 [Example 2-44-3, 6-(7-(((5-Chloropyridin-3-yl)methyl)amino)-1-fluoro-9H-xanthen-4-yl)-4-morpholinopyridin-2(1H)-one]"
2,6.30 to 7.00,"O=c1cc(N2CCOCC2)cc(-c2cccc3c2Oc2ccc(NCc4ccccc4)cc2C3)[nH]1 [Example 2-14-3, 6-(7-(Benzylamino)-9H-xanthen-4-yl)-4-morpholino pyridin-2(1H)-one]"
3,6.30 to 7.00,"CC(Nc1ccc2c(c1)Cc1cccc(-c3cc(N4CCOCC4)cc(=O)[nH]3)c1O2)c1nccc(CF)n1 (centres unmarked) [Example 2-14-64, 6-(7-((1-(4-(Fluoromethyl)pyrimidin-2-yl)ethyl)amino)-9H-xanthen-4-yl)-4-morpholino pyridin-2(1H)-one]"
4,6.30 to 7.00,"COc1cncc(C(C)Nc2ccc3c(c2)Cc2cccc(-c4cc(N5CCOCC5)cc(=O)[nH]4)c2O3)c1 (racemic) [Example 2-11-2, 6-(7-((1-(5-Methoxypyridin-3-yl)ethyl)amino)-9H-xanthen-4-yl)-4-morpholinopyridin-2(1H)-one]"
5,6.30 to 7.00,"CNc1ncccc1CNc1ccc2c(c1)Cc1cccc(-c3cc(N4CCOCC4)cc(=O)[nH]3)c1O2 [Example 2-2-26, 6-(7-(((2-(Methylamino)pyridin-3-yl)methyl)amino)-9H-xanthen-4-yl)-4-morpholino pyridin-2(1H)-one]"
6,6.30 to 7.00,"O=c1cc(N2CCOCC2)cc(-c2cccc3c2Oc2cccc(N4CCOCC4)c2C3)[nH]1 [Example 2-60, 4-Morpholino-6-(8-morpholino-9H-xanthen-4-yl)pyridin-2(1H)-one]"
7,6.30 to 7.00,"CCCCN1CCC(Nc2ccc3c(c2)Cc2cccc(-c4cc(N5CCOCC5)cc(=O)[nH]4)c2O3)CC1 [Example 2-28-33, 6-(7-((1-Butylpiperidin-4-yl)amino)-9H-xanthen-4-yl)-4-morpholino pyridin-2 (1H)-one]"
8,6.30 to 7.00,"CCCCC(Nc1ccc2c(c1)Sc1cccc(-c3cc(N4CCOCC4)cc(=O)[nH]3)c1S2)[C@H](C)N1CCOCC1 (stereo partly drawn) [Example 1-21-2, 4-Morpholino-6-(7-(((2S)-2-morpholinoheptan-3-yl)amino)thianthren-1-yl) pyridin-2(1H)-one]"
9,6.30 to 7.00,"COc1nccc(C(C)Nc2ccc3c(c2)Sc2cccc(-c4cc(N5CCOCC5)cc(=O)[nH]4)c2S3)n1 (centres unmarked) [Example 1-12-88, 6-(7-((1-(2-Methoxypyrimidin-4-yl)ethyl)amino)thianthren-1-yl)-4-morpholino pyridin-2(1H)-one]"
10,6.30 to 7.00,"O=c1cc(N2CCOCC2)cc(-c2cccc3c2Sc2ccc(NC4CCCN(C5COC5)C4)cc2S3)[nH]1 (centres unmarked) [Example 1-24-6, 4-Morpholino-6-(7-((1-(oxetan-3-yl)piperidin-3-yl)amino)thianthren-1-yl) pyridin-2(1H)-one]"
11,5.70 to 6.30,"COCc1ccc(CCN2CCC(Nc3ccc4c(c3)Cc3cccc(-c5cc(N6CCOCC6)cc(=O)[nH]5)c3O4)CC2)cc1 [Example 2-30-20, 6-(7-((1-(4-(Methoxymethyl)phenethyl)piperidin-4-yl)amino)-9H-xanthen-4-yl)-4-morpholino pyridin-2(1H)-one]"
12,6.30 to 7.00,"O=c1cc(N2CCOCC2)cc(-c2cccc3c2Oc2ccc(NC4CCN(Cc5ccoc5)CC4)cc2C3)[nH]1 [Example 2-28-28, 6-(7-((1-(Furan-3-ylmethyl)piperidin-4-yl)amino)-9H-xanthen-4-yl)-4-morpholino pyridin-2(1H)-one]"
13,6.30 to 7.00,"CC(C)N1CCC(Nc2ccc3c(c2)Sc2cccc(-c4cc(N5CCOCC5)cc(=O)[nH]4)c2S3)CC1 [Example 1-12-116, 6-(7-((1-Isopropylpiperidin-4-yl)amino)thianthren-1-yl)-4-morpholino pyridin-2(1H)-one]"
14,6.30 to 7.00,"COc1ccc(CCN2CCC(Nc3ccc4c(c3)Sc3cccc(-c5cc(N6CCOCC6)cc(=O)[nH]5)c3S4)CC2)cc1 [Example 1-27, 6-(7-((1-(4-methoxyphenethyl)piperidin-4-yl)amino)thianthren-1-yl)-4-morpholinopyridin-2(1H)-one]"
15,6.30 to 7.00,"O=c1cc(N2CCOCC2)cc(-c2cccc3c2Oc2ccc(NCc4cncnc4)cc2C3)[nH]1 [Example 2-3-2, 4-Morpholino-6-(7-((pyrimidin-5-ylmethyl)amino)-9H-xanthen-4-yl) pyridin-2(1H)-one]"
16,5.70 to 6.30,"Cc1nccc(CNc2ccc3c(c2)Sc2cccc(-c4cc(N5CCOCC5)cc(=O)[nH]4)c2S3)n1 [Example 1-12-39, 6-(7-(((2-Methylpyrimidin-4-yl)methyl)amino)thianthren-1-yl)-4-morpholino pyridin-2 (1H)-one]"
17,> 7.00,"CCN(C)CCC(Nc1ccc2c(c1)Sc1cccc(-c3cc(N4CCOCC4)cc(=O)[nH]3)c1S2)c1cnc(C)cn1 (single isomer, unassigned) [Example 1-51-10, 6-(7-((3-(Ethyl(methyl)amino)-1-(5-methylpyrazin-2-yl)propyl)amino)thianthren-1-yl)-4-morpholino pyridin-2(1H)-one]"
